Experimental data reported in ChEMBL document CHEMBL1156061, “Design and synthesis of substituted nicotinamides as inhibitors of soluble epoxide hydrolase” (Bioorg Med Chem Lett, 2009).

Key:
[1] = target: T1, Bifunctional epoxide hydrolase 2 (Homo sapiens, UniProt P34913); experiment: Inhibition of human soluble EH
T1 sequence (P34913 whole entry): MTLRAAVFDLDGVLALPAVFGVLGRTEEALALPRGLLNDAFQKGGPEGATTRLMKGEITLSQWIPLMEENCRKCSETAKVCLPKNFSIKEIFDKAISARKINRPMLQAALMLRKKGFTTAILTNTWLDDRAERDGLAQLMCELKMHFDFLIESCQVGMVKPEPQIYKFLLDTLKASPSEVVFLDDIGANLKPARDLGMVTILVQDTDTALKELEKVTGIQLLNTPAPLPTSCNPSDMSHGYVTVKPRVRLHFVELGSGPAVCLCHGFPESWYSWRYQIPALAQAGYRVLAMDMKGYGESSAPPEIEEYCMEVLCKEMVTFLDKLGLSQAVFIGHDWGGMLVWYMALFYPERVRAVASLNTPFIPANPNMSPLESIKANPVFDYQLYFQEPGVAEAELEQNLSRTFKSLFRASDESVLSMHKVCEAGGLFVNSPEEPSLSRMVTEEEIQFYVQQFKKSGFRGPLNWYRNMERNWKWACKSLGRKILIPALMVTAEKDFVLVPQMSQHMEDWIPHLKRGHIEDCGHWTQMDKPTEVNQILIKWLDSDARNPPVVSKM

[2] = target: T2, Bifunctional epoxide hydrolase 2 (Rattus norvegicus, UniProt P80299); experiment: Inhibition of rat sEH
T2 sequence (P80299 whole entry): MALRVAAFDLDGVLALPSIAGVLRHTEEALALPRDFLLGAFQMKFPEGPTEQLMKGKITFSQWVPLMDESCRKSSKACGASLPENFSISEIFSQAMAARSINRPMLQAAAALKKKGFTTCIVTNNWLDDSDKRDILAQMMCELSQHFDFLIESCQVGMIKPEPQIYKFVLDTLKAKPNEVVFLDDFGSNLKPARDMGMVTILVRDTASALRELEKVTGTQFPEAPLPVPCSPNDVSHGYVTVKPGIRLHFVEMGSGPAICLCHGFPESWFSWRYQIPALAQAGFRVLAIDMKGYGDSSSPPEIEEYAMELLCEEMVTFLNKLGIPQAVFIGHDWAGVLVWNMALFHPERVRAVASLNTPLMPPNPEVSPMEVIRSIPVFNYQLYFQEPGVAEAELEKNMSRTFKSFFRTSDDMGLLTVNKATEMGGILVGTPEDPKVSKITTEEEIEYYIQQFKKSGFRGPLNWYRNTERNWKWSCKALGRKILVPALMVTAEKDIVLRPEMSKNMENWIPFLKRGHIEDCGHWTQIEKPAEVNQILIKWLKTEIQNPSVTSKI

[3] = Metabolic stability in human liver microsomes assessed as half life; assay type: ADME, Microsome
[4] = target: T1, Bifunctional epoxide hydrolase 2; experiment: Inhibition of soluble EH in human HepG2 cells by cellular assay; assay type: cell-based
[5] = Metabolic stability in rat liver microsomes assessed as half life; assay type: ADME, Microsome
[6] = Plasma concentration in Sprague-Dawley rat at 5 mg/kg, po after 1 hr; assay type: ADME, organism-based; set-up: dose 5 mg/kg, route oral

Compound	IC50 [1] [nM]	IC50 [2] [nM]	half-life [3] [h]	IC50 [4] [nM]	half-life [5] [h]	concentration at 1 h [6] [nM]
O=C(NCc1ccc(Br)cc1OC(F)(F)F)c1ccc(OCC(F)(F)F)nc1	12	7	5	0.1	0.283	–
CCOCCn1cc(C(=O)NCCC(c2ccccc2)c2ccccc2)ccc1=O	–	4	0.0667	–	0.0833	–
O=C(NCc1ccccc1OC(F)(F)F)c1ccc(OCC(F)(F)F)nc1	–	6	1.3	–	0.117	–
CS(=O)(=O)c1ccc(CNC(=O)c2ccc(OCCC(F)(F)F)nc2)cc1	110	25	2.6	–	2.88	–
Nc1ccc(C(=O)NCCC(c2ccccc2)c2ccccc2)cn1	–	8.5	0.55	–	0.0833	–
O=C(NCc1ccc(Cl)cc1Cl)c1ccc(=O)[nH]c1	400	330	1.3	–	3.18	–
Nc1ccc(C(=O)NCc2ccc(Cl)cc2Cl)cn1	–	430	0.767	–	0.733	–
O=C(NCc1ccccc1)c1ccc(OCCC(F)(F)F)nc1	1200	–	–	–	–	–
O=C(NCc1ccc(Cl)cc1)c1ccc(OCCC(F)(F)F)nc1	–	7	–	–	–	–
N#Cc1ccc(CNC(=O)c2ccc(OCC(F)(F)F)nc2)c(Cl)c1	14	–	3.13	12	1.75	–
CS(=O)(=O)c1ccccc1CNC(=O)c1ccc(OCCC(F)(F)F)nc1	270	–	–	–	–	–
O=C(NCCC(c1ccccc1)c1ccccc1)c1ccc(CCN2CCCC2)nc1	18	9	0.767	–	0.683	–
O=C(NCCC(c1ccccc1)c1ccccc1)c1ccc(=O)[nH]c1	8.1	10	1.6	–	0.117	–
O=C(NCc1ccc(Cl)cc1Cl)c1ccc(OCC(F)(F)F)nc1	6.6	7.3	2.97	18	0.117	2500
CNS(=O)(=O)c1ccc(CNC(=O)c2ccc(OCC(F)(F)F)nc2)c(Cl)c1	14	19	1.35	31	0.417	–
CS(=O)(=O)c1ccc(-c2ccc(CNC(=O)c3ccc(OCCC(F)(F)F)nc3)cc2)cc1	12	4.3	–	24	–	–
O=C(NCCC(c1ccccc1)c1ccccc1)c1ccc(OCC(F)(F)F)nc1	5.4	7.8	0.633	–	< 0.05	–
CCOCCn1cc(C(=O)NCc2ccc(Cl)cc2Cl)ccc1=O	16	6	0.4	–	0.317	–
O=C(NC1CCOCC1)C1CCN(C(=O)NCc2ccc(Cl)cc2Cl)CC1	–	–	5	–	1.73	–
CS(=O)(=O)c1ccc(CNC(=O)c2ccc(OCC(F)(F)F)nc2)c(Cl)c1	15	16	1.6	28	1.25	–
O=C(NCc1ccc(Cl)cc1Cl)c1ccc(CCN2CCCC2)nc1	1500	–	–	–	–	–
CS(=O)(=O)c1cc(Cl)ccc1CNC(=O)c1ccc(OCC(F)(F)F)nc1	–	11	5	–	1.65	–
